Data: patent US20240109917A1 (ACTELION PHARMACEUTICALS LTD, priority 2020, published 2024)
Where two headings read alike, the source gives them in different places.

How the values were obtained:
PDGFRβ = PDGFRβ (Rattus norvegicus (Rat), UniProt Q05030); experiment: PDGFRβ Cellular Assay (PDGFRb P-Y751 HTRF in A10 cells stimulated with PDGF-BB); type: cell-based
How it was run: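 Phospho-Y751 PDGFRβ was measured by HTRF in lysates of A10 rat cells. Cells received compound for 3 hours before PDGF-BB stimulation (100 ng/mL working stock).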

[1] = target: Tb-labeled inactive PDGFRβ (Homo sapiens (Human), UniProt P09619); experiment: PDGFRβ LanthaScreen Assay; type: binding; conditions: read-out: PDGFR Lantha IC50
Sequence of Tb-labeled inactive PDGFRβ (P09619 33-1106): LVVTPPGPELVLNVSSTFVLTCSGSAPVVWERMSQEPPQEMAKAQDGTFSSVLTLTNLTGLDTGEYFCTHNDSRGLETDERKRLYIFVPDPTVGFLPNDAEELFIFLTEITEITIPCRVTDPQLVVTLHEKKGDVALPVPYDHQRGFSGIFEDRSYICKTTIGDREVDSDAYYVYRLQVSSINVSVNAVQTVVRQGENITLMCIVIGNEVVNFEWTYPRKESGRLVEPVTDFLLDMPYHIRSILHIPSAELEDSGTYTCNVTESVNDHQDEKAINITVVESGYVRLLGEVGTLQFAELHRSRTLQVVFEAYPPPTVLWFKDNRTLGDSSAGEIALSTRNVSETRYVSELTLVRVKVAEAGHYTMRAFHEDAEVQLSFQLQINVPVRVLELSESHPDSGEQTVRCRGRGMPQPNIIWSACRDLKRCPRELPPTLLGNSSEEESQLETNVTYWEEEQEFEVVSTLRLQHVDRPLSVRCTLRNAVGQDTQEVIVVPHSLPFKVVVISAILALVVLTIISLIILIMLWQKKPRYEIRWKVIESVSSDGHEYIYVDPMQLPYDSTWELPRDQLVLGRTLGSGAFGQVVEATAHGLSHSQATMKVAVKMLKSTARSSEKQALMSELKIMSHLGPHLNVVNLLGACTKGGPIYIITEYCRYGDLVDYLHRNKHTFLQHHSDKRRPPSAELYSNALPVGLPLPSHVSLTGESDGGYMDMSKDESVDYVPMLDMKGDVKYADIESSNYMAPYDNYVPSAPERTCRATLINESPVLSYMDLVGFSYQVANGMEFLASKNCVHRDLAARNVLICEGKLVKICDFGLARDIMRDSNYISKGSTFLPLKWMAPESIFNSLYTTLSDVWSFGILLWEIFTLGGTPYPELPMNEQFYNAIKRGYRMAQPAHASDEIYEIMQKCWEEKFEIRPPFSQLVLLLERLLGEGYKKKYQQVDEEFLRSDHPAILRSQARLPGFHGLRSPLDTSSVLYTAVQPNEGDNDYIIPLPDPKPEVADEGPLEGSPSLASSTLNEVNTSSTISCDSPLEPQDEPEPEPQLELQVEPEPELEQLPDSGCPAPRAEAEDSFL

Sequence of PDGFRβ (Q05030 32-1097): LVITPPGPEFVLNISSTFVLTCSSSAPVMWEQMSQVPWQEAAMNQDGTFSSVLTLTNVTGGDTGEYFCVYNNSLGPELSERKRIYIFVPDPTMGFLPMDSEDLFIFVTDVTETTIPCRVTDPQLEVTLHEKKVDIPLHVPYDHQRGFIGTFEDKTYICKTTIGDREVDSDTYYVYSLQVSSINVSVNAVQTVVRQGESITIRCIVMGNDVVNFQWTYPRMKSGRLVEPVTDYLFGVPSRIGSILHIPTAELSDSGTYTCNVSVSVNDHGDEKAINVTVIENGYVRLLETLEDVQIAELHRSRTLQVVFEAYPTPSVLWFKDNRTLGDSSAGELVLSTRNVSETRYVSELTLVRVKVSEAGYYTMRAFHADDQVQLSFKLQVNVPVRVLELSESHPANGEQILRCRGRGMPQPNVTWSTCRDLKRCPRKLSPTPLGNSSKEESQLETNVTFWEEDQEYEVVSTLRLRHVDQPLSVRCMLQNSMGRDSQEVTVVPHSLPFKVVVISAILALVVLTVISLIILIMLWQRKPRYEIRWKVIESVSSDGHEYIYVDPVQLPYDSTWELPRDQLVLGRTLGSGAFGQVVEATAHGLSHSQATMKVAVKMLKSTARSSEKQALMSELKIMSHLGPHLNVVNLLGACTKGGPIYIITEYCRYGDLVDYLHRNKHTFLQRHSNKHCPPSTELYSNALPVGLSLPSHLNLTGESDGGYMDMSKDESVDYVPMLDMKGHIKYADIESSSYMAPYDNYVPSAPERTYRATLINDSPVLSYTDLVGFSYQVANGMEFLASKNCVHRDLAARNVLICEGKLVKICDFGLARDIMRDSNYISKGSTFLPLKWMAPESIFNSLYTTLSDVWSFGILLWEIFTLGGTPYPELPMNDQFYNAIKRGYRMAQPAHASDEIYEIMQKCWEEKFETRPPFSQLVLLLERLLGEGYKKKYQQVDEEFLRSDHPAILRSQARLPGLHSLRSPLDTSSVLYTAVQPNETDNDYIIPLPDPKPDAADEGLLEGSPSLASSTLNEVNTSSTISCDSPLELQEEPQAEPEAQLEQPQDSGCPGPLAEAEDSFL

Compound | IC50 (PDGFRβ; read-out: PDGFR Cellular IC50) [µM] | IC50 [1] [µM] | IC50 (PDGFRβ; PDGFR Cellular IC50) [µM]
Cc1ncc(C(=O)NCCN2CCCC2)cc1NC(=O)c1cnn2cc(-c3cnn(CC(O)CO)c3)sc12 (centres unmarked) [Example 225, 2-(1-(2,3-Dihydroxypropyl)-1H-pyrazol-4-yl)-N-(2-methyl-5-((2-(pyrrolidin-1-yl)ethyl)carbamoyl)pyridin-3-yl)pyrazolo[5,1-b]thiazole-7-carboxamide] | > 2 | 0.0122 | –
Cn1cc(-c2cn3ncc(C(=O)Nc4cc(C(=O)NCCN5CCCC5(C)C)ccc4F)c3s2)cn1 [Example 207, N-(5-((2-(2,2-dimethylpyrrolidin-1-yl)ethyl)carbamoyl)-2-fluorophenyl)-2-(1-methyl-1H-pyrazol-4-yl)pyrazolo[5,1-b]thiazole-7-carboxamide] | 0.0033 | 0.0044 | –
Cc1ncc(C(=O)NCCN2CCCC2)cc1NC(=O)c1cnn2cc(-c3cn(C)nc3C(F)(F)F)sc12 [Example 227, 2-(1-Methyl-3-(trifluoromethyl)-1H-pyrazol-4-yl)-N-(2-methyl-5-((2-(pyrrolidin-1-yl)ethyl)carbamoyl)pyridin-3-yl)pyrazolo[5,1-b]thiazole-7-carboxamide] | 0.438 | 0.0213 | –
Cc1ncc(C(=O)NCCN2CCCC2)cc1NC(=O)c1cnn2cc(-c3cnn(C)c3C)sc12 [Example 220, 2-(1,5-Dimethyl-1H-pyrazol-4-yl)-N-(2-methyl-5-((2-(pyrrolidin-1-yl)ethyl)carbamoyl)pyridin-3-yl)pyrazolo[5,1-b]thiazole-7-carboxamide] | 0.059 | 0.005 | –
Cc1cc(C(=O)NCCN2CC[C@H](O)C2)sc1NC(=O)c1cnn2cc(-c3cnn(C)c3)sc12 [Example 195, (S)—N-(5-((2-(3-hydroxypyrrolidin-1-yl)ethyl)carbamoyl)-3-methylthiophen-2-yl)-2-(1-methyl-1H-pyrazol-4-yl)pyrazolo[5,1-b]thiazole-7-carboxamide] | > 3 | > 3 | –
Cc1ncc(NC(=O)CCN2CCCC2(C)C)cc1NC(=O)c1cnn2cc(-c3ccn(C)n3)sc12 [Example 12, N-(5-(3-(2,2-dimethylpyrrolidin-1-yl)propanamido)-2-methyl-pyridin-3-yl)-2-(1-methyl-1H-pyrazol-3-yl)pyrazolo[5,1-b]thiazole-7-carboxamide] | 0.0077 | 0.0033 | –
Cc1ncc(C(=O)NCCN2CCCC2(C)C)cc1NC(=O)c1cnn2cc(-c3cn(C)nc3CO)sc12 [Example 224, N-(5-((2-(2,2-dimethylpyrrolidin-1-yl)ethyl)carbamoyl)-2-methylpyridin-3-yl)-2-(3-(hydroxymethyl)-1-methyl-1H-pyrazol-4-yl)pyrazolo[5,1-b]thiazole-7-carboxamide] | 0.903 | 0.0112 | –
Cc1ncc(C(=O)NC[C@H]2CCCN2CCO)cc1NC(=O)c1cnn2cc(-c3cnn(C)c3)sc12 [Example 236, (R)—N-(5-(((1-(2-hydroxyethyl)pyrrolidin-2-yl)methyl)carbamoyl)-2-methylpyridin-3-yl)-2-(1-methyl-1H-pyrazol-4-yl)pyrazolo[5,1-b]thiazole-7-carboxamide] | 0.677 | 0.0836 | –
COCCn1cc(-c2cn3ncc(C(=O)Nc4cc(NC(=O)CCCN5CCC[C@@H]5C)cnc4C)c3s2)cn1 [Example 216, (S)-2-(1-(2-methoxyethyl)-1H-pyrazol-4-yl)-N-(2-methyl-5-(4-(2-methylpyrrolidin-1-yl)butanamido)pyridin-3-yl)pyrazolo[5,1-b]thiazole-7-carboxamide] | – | 0.0478 | 0.626
Cc1ncc(C(=O)NCCNCCO)cc1NC(=O)c1cnn2cc(-c3cnn(C)c3)sc12 [Example 234, N-(5-((2-((2-hydroxyethyl)amino)ethyl)carbamoyl)-2-methylpyridin-3-yl)-2-(1-methyl-1H-pyrazol-4-yl)pyrazolo[5,1-b]thiazole-7-carboxamide] | > 3 | 0.283 | –
Cc1ncc(NC(=O)OC[C@@H]2CCCN2C)cc1NC(=O)c1cnn2cc(-c3cnn(C)c3)sc12 [Example 243, (S)-(1-methylpyrrolidin-2-yl)methyl (6-methyl-5-(2-(1-methyl-1H-pyrazol-4-yl)pyrazolo[5,1-b]thiazole-7-carboxamido)pyridin-3-yl)carbamate] | – | 0.0131 | 0.0203
Cc1cc(C(=O)NCCN2CC3CCC2CC3)sc1NC(=O)c1cnn2cc(-c3cnn(C)c3)sc12 [Example 199, N-(5-((2-(2-azabicyclo[2.2.2]octan-2-yl)ethyl)carbamoyl)-3-methylthiophen-2-yl)-2-(1-methyl-1H-pyrazol-4-yl)pyrazolo[5,1-b]thiazole-7-carboxamide] | 0.237 | 0.125 | –
Cc1ncc(C(=O)NCCN2CCCC2(C)C)cc1NC(=O)c1cnn2cc(-c3cncc(S(C)(=O)=O)c3)sc12 [Example 230, N-(5-((2-(2,2-dimethylpyrrolidin-1-yl)ethyl)carbamoyl)-2-methylpyridin-3-yl)-2-(5-(methylsulfonyl)pyridin-3-yl)pyrazolo[5,1-b]thiazole-7-carboxamide] | 0.791 | 0.0829 | –
Cc1ncc(C(=O)NCCN2C[C@H]3CC[C@@H]2C3)cc1NC(=O)c1cnn2cc(-c3cnn(C)c3C)sc12 [Example 208, N-(5-((2-((1R,4S)-2-azabicyclo[2.2.1]heptan-2-yl)ethyl)carbamoyl)-2-methylpyridin-3-yl)-2-(1,5-dimethyl-1H-pyrazol-4-yl)pyrazolo[5,1-b]thiazole-7-carboxamide] | 0.096 | 0.0043 | –
Cc1cc(C(=O)NCCN2CC[C@@H](O)C2)sc1NC(=O)c1cnn2cc(-c3cnn(C)c3)sc12 [Example 194, (R)—N-(5-((2-(3-hydroxypyrrolidin-1-yl)ethyl)carbamoyl)-3-methylthiophen-2-yl)-2-(1-methyl-1H-pyrazol-4-yl)pyrazolo[5,1-b]thiazole-7-carboxamide] | > 3 | > 3 | –
Cc1cc(C(=O)NCCN(C)C2CCCC2)sc1NC(=O)c1cnn2cc(-c3cnn(C)c3)sc12 [Example 190, N-(5-((2-(cyclopentyl(methyl)amino)ethyl)carbamoyl)-3-methylthiophen-2-yl)-2-(1-methyl-1H-pyrazol-4-yl)pyrazolo[5,1-b]thiazole-7-carboxamide] | – | 0.398 | 0.147
Cc1ncc(C(=O)NCCN2CCCC2(C)C)cc1NC(=O)c1cnn2cc(-c3c(C)n[nH]c3C)sc12 [Example 231, 2-(3,5-Dimethyl-1H-pyrazol-4-yl)-N-(5-((2-(2,2-dimethylpyrrolidin-1-yl)ethyl)carbamoyl)-2-methylpyridin-3-yl)pyrazolo[5,1-b]thiazole-7-carboxamide] | 0.0731 | 0.0033 | –
Cc1ncc(C(=O)NCCN(CCO)CC2CCCCC2)cc1NC(=O)c1cnn2cc(-c3cnn(C)c3)sc12 [Example 235, N-(5-((2-((cyclohexylmethyl)(2-hydroxyethyl)amino)ethyl)carbamoyl)-2-methylpyridin-3-yl)-2-(1-methyl-1H-pyrazol-4-yl)pyrazolo[5,1-b]thiazole-7-carboxamide] | 0.0095 | 0.0052 | –
Cc1cc(C(=O)NCCN2[C@H](C)CCC[C@@H]2C)sc1NC(=O)c1cnn2cc(-c3cnn(C)c3)sc12 [Example 198, N-(5-((2-((2S,6R)-2,6-dimethylpiperidin-1-yl)ethyl)carbamoyl)-3-methylthiophen-2-yl)-2-(1-methyl-1H-pyrazol-4-yl)pyrazolo[5,1-b]thiazole-7-carboxamide] | – | 0.111 | 0.105
Cc1ncc(NC(=O)OC2CN(C(C)(C)C)C2)cc1NC(=O)c1cnn2cc(-c3cnn(C)c3)sc12 [Example 252, 1-(tert-butyl)azetidin-3-yl (6-methyl-5-(2-(1-methyl-1H-pyrazol-4-yl)pyrazolo[5,1-b]thiazole-7-carboxamido)pyridin-3-yl)carbamate] | 0.0797 | 0.0532 | –
Cc1cc(C(=O)NCCN2CCCC(O)C2)sc1NC(=O)c1cnn2cc(-c3cnn(C)c3)sc12 (centres unmarked) [Example 200, N-(5-((2-(3-hydroxypiperidin-1-yl)ethyl)carbamoyl)-3-methylthiophen-2-yl)-2-(1-methyl-1H-pyrazol-4-yl)pyrazolo[5,1-b]thiazole-7-carboxamide] | > 3 | 2.21 | –
Cc1ncc(NC(=O)OCC(C)N2CCCC2)cc1NC(=O)c1cnn2cc(-c3cnn(C)c3)sc12 (centres unmarked) [Example 248, 2-(pyrrolidin-1-yl)propyl (6-methyl-5-(2-(1-methyl-1H-pyrazol-4-yl)pyrazolo[5,1-b]thiazole-7-carboxamido)pyridin-3-yl)carbamate] | 0.0313 | 0.0102 | –
Cc1cc(C(=O)NCCN2CCC(CO)CC2)sc1NC(=O)c1cnn2cc(-c3cnn(C)c3)sc12 [Example 193, N-(5-((2-(4-(hydroxymethyl)piperidin-1-yl)ethyl)carbamoyl)-3-methylthiophen-2-yl)-2-(1-methyl-1H-pyrazol-4-yl)pyrazolo[5,1-b]thiazole-7-carboxamide] | > 3 | > 3 | –
Cc1cc(C(=O)NCCN2CCc3ccccc3C2)sc1NC(=O)c1cnn2cc(-c3cnn(C)c3)sc12 [Example 204, N-(5-((2-(3,4-dihydroisoquinolin-2 (1H)-yl)ethyl)carbamoyl)-3-methylthiophen-2-yl)-2-(1-methyl-1H-pyrazol-4-yl)pyrazolo[5,1-b]thiazole-7-carboxamide] | 0.46 | 0.42 | –
Cc1cc(C(=O)NCCN(C)C2CCOCC2)sc1NC(=O)c1cnn2cc(-c3cnn(C)c3)sc12 [Example 192, 2-(1-methyl-1H-pyrazol-4-yl)-N-(3-methyl-5-((2-(methyl(tetrahydro-2H-pyran-4-yl)amino)ethyl)carbamoyl)thiophen-2-yl)pyrazolo[5,1-b]thiazole-7-carboxamide] | > 3 | 1.38 | –
